Like-named read-outs stand apart in the source and are kept apart here.
How the values were obtained:
[1] = test system: Sprague Dawley rats; settings: rat, in vivo; for Liver Necrosis / Score (histopathology liver necrosis severity score): ip
Procedure, shortened: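 Toxicity calls (necrosis present or absent at 72 h) and histopathology scores were correlated with tissue gene expression from Crl:CD Sprague Dawley rats. Animals, usually 3 treated with compound by i.p. route and 3 given vehicle, were killed at 6, 24 or 72 h and tissues frozen immediately in liquid nitrogen.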

[2] = test system: toxicologically relevant rat genes (rat CT array); settings: rat, in vivo

CN(C)[C@@H]1C(O)=C(C(N)=O)C(=O)[C@@]2(O)C(O)=C3C(=O)c4c(O)cccc4[C@@](C)(O)[C@H]3C[C@@H]12 [tetracycline]
toxicity at the high dose [1]: produced toxicity
toxicity at the low dose [1]: not at the low dose
Liver Necrosis ([1]; 50 mg/kg): no
Score (histopathology liver necrosis severity score) ([1]; 50 mg/kg): 1
Liver Necrosis ([1]; 150 mg/kg): Yes
Score (histopathology liver necrosis severity score) ([1]; 150 mg/kg): 2
14-3-3 zeta expression [2]: 0.7335
60S ribosomal protein L6 expression [2]: 1.38
Adenine nucleotide translocator 1 expression [2]: 1.332
Alpha-1 microglobulin/bikunin precursor (Ambp) expression [2]: 1.73
Alpha-2-macroglobulin, sequence 2 expression [2]: 1.2
Alpha-2-microglobulin expression [2]: 0.5107
Alpha-prothymosin expression [2]: 1.454
Alpha-tubulin expression [2]: 0.9701
Apolipoprotein AII expression [2]: 0.2962
Apolipoprotein C1 expression [2]: 1.791
Aquaporin-3 (AQP3) expression [2]: 0.9307
Beta-actin expression [2]: 0.78
Beta-actin, sequence 2 expression [2]: 0.5941
Beta-tubulin, class I expression [2]: 0.7321
Betaine homocysteine methyltransferase (BHMT) expression [2]: 0.2575
Biliverdin reductase expression [2]: 0.7455
CDK108 expression [2]: 0.7153
Calpactin I heavy chain expression [2]: 1.165
Calpain 2 expression [2]: 1.216
Cathepsin L, sequence 2 expression [2]: 1.097
Cathepsin S expression [2]: 1.473
Cholesterol esterase expression [2]: 0.955
Cofilin expression [2]: 1.77
Collagen type II expression [2]: 1.355
Cyclin D1 expression [2]: 1.265
Cystatin C expression [2]: 1.57
Cytochrome P450 2A3 expression [2]: 0.8495
Cytochrome P450 2C11 expression [2]: 0.8002
Cytochrome P450 2C23 expression [2]: 1.592
Dynamin-1 (D100) expression [2]: 0.9613
Elongation factor-1 alpha expression [2]: 1.049
Equilbrative nitrobenzylthioinosine-sensitive nucleoside transporter expression [2]: 1.39
F1-ATPase beta subunit expression [2]: 1.072
Fatty acid synthase expression [2]: 0.837
Gamma-actin, cytoplasmic expression [2]: 1.057
Glutathione S-transferase theta-1 expression [2]: 1.085
Glycine methyltransferase expression [2]: 0.5811
Heme oxygenase expression [2]: 1.421
High affinity IgE receptor gamma chain (FcERIgamma) expression [2]: 1.193
Hypoxanthine-guanine phosphoribosyltransferase expression [2]: 0.7473
IgE binding protein expression [2]: 1.055
Insulin-like growth factor I, exon 6 expression [2]: 0.8256
JNK1 stress activated protein kinase expression [2]: 0.6582
Melanoma-associated antigen ME491 expression [2]: 1.77
Multidrug resistant protein-1 expression [2]: 1.041
Multidrug resistant protein-2 expression [2]: 0.8907
N-hydroxy-2-acetylaminofluorene sulfotransferase (ST1C1) expression [2]: 1.531
NADP-dependent isocitrate dehydrogenase, cytosolic expression [2]: 1.608
NIPK expression [2]: 0.7421
Nucleoside diphosphate kinase beta isoform expression [2]: 1.032
Organic cation transporter 3 expression [2]: 1.233
Ornithine decarboxylase expression [2]: 0.9438
Osteoactivin expression [2]: 1.112
Paraoxonase 1 expression [2]: 2.144
Phase-1 RCT-24 expression [2]: 0.8327
Phase-1 RCT-36 expression [2]: 0.8652
Phase-1 RCT-43 expression [2]: 1.003
Phase-1 RCT-58 expression [2]: 1.737
Phase-1 RCT-109 expression [2]: 0.5933
Phase-1 RCT-117 expression [2]: 0.8447
Phase-1 RCT-146 expression [2]: 0.9475
Phase-1 RCT-149 expression [2]: 0.6559
Phase-1 RCT-173 expression [2]: 0.5698
Phase-1 RCT-179 expression [2]: 1.528
Phase-1 RCT-207 expression [2]: 0.6995
Phase-1 RCT-211 expression [2]: 0.6151
Phase-1 RCT-227 expression [2]: 1.846
Phase-1 RCT-290 expression [2]: 0.417
Poly(ADP-ribose) polymerase expression [2]: 0.9896
Presenilin-1 expression [2]: 2.114
Protein tyrosine phosphatase, receptor type, D expression [2]: 1.295
Pyruvate kinase, muscle expression [2]: 0.6785
Ribosomal protein L13A expression [2]: 0.6452
Ribosomal protein S9 expression [2]: 1.161
Ribosomal protein S17 expression [2]: 1.358
Stathmin expression [2]: 0.7954
Stearyl-CoA desaturase, liver expression [2]: 0.1376
Thioredoxin-1 (Trx1) expression [2]: 0.7172
Thymosin beta-10 expression [2]: 0.6534
Tissue plasminogen activator expression [2]: 0.9708
Transitional endoplasmic reticulum ATPase expression [2]: 1.373
Ubiquitin conjugating enzyme (RAD 6 homologue) expression [2]: 1.177
Uncoupling protein 2 expression [2]: 0.7333
Zinc finger protein expression [2]: 1.116
alpha-1,2-fucosyltransferase expression [2]: 0.495
p55CDC expression [2]: 0.9757
{Phase-1 RCT 98} expression [2]: 1.16
{Ribosomal protein 16} expression [2]: 1.197

— US20040076974A1, “Liver necrosis predictive genes” (priority 2002, published 2004)
